The values below come from US20240317735A1, “HYDROISOQUINOLINE OR HYDRONAPHTHYRIDINE COMPOUNDS FOR THE TREATMENT OF AUTOIMMUNE DISEASE” (Hoffmann-La Roche Inc., priority 2020, published 2024).

One data set addresses T1, human TLR8 (Homo sapiens, UniProt Q9NR97).
T1 construct: host or cells: HEK293 (HEK-Blue hTLR8)
T1 sequence (Q9NR97 27-1041): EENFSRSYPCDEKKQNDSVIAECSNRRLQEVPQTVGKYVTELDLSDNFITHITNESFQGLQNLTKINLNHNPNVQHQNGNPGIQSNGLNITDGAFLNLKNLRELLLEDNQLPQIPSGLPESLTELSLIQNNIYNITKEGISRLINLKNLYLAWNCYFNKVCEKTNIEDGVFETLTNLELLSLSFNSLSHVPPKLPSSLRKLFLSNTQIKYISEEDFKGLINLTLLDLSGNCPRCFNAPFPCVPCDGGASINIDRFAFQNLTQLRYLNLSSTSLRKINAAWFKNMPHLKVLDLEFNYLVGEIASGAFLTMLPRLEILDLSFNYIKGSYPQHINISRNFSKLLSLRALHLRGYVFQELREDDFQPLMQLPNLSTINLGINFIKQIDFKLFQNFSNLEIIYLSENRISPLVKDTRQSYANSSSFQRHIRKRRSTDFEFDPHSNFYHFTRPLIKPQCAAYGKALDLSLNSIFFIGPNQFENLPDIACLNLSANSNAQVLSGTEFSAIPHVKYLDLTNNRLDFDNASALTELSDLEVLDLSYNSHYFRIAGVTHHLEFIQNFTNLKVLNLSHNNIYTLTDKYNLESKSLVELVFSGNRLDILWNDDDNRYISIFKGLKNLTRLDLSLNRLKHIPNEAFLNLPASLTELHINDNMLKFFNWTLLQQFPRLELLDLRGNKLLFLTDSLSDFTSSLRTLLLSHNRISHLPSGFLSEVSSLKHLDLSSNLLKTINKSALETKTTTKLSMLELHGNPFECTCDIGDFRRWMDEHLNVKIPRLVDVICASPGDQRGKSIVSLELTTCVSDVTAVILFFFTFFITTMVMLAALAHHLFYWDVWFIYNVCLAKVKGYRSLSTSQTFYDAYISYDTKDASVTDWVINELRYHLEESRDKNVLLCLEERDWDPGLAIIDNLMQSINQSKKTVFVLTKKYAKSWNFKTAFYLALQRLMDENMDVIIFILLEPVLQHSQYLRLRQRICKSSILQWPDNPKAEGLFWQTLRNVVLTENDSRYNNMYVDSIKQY
Put plainly: HEK293-Blue-hTLR-8 cells assay (SEAP reporter, R848 stimulation). Type of data set: cell-based. Conditions: HEK293-Blue-hTLR8 cells, R848, 20 hrs; read-out: HEK/hTLR8 IC50. A digest of the protocol:
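HEK293-Blue hTLR8 cells with NF-κB/AP-1-driven SEAP reporter incubated 20 h at 37 °C with serially diluted compound (1% DMSO) and R848 stimulus (60 μM stock). Supernatant SEAP measured with QUANTI-Blue (2 h, 37 °C) by absorbance at 620–655 nm; antagonism read as reduced reporter signal.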

The nature of data set [1]: Human microsome stability assay. The data set is classed as in vitro ADME. To be noted: 1 μM test compound, 0.5 mg/mL liver microsomal protein, 37° C., pH 7.4. A digest of the protocol: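 1 μM compound with 0.5 mg/mL human liver microsomes in 100 mM potassium phosphate pH 7.4, 37° C, started with NADPH-regenerating system after 10 min preincubation. Sampled at 0, 3, 6, 9, 15, 30 min, quenched in acetonitrile; parent remaining by LC-MS/MS, with no-NADPH controls.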

Turning to `Cc1cc(N2Cc3ccc(N4C[C@@H](N)[C@H](O)C4)cc3[C@@H](C)C2)c2cnn(C)c2n1` [Example 47, trans-4-amino-1-[(4R)-2-(1,6-dimethylpyrazolo[3,4-b]pyridin-4-yl)-4-methyl-3,4-dihydro-1H-isoquinolin-6-yl]pyrrolidin-3-ol], on human TLR8, the IC50 came to 3 nM. Moreover, in data set [1], the “Clearance of Human microsome” value turned out to be 6.2 mL/min/kg.

As to `CO[C@H]1CN(c2cc3c(cn2)CN(c2cc(C)nc4c2cnn4C)C[C@@H]3C)CC[C@@H]1N` [Example 73, (3S,4S)-3-methoxy-1-[(5R)-7-(1,6-dimethylpyrazolo[3,4-b]pyridin-4-yl)-5-methyl-6,8-dihydro-5H-2,7-naphthyridin-3-yl]piperidin-4-amine], the IC50 at human TLR8 was 2 nM. Moreover, the “Clearance of Human microsome” value in data set [1] is 6.3 mL/min/kg.

Consider `C[C@H]1CN(c2ccnc3c2cnn3C)Cc2ccc(N3C[C@@H](N)[C@H](O)C3)cc21` [Example 46, trans-4-amino-1-[(4R)-4-methyl-2-(1-methylpyrazolo[3,4-b]pyridin-4-yl)-3,4-dihydro-1H-isoquinolin-6-yl]pyrrolidin-3-ol], for which the IC50 at human TLR8 came to 7 nM. The “Clearance of Human microsome” value in data set [1] came to 6.2 mL/min/kg.

Turning to `CO[C@@H]1CN(c2cc3c(cn2)CN(c2cc(C)nc4c2cnn4C)C[C@@H]3C)C[C@H]1N` [Example 78, (3R,4R)-4-methoxy-1-[(5R)-7-(1,6-dimethylpyrazolo[3,4-b]pyridin-4-yl)-5-methyl-6,8-dihydro-5H-2,7-naphthyridin-3-yl]pyrrolidin-3-amine], the IC50 on human TLR8 was determined as 52 nM. Moreover, in data set [1], the “Clearance of Human microsome” value worked out at 6.9 mL/min/kg.

As to `Cc1cc(N2Cc3cnc(N4CCNCC4)cc3[C@@H](C)C2)c2cnn(C)c2n1` [Example 74, (4R)-2-(1,6-dimethylpyrazolo[3,4-b]pyridin-4-yl)-4-methyl-6-piperazin-1-yl-3,4-dihydro-1H-2,7-naphthyridine], the IC50 on human TLR8 worked out at 2 nM. Also, the “Clearance of Human microsome” value in data set [1] worked out at 9.2 mL/min/kg.

Consider `C[C@H]1CN(c2ccnc3c2cnn3C)Cc2ccc(N3CC4(CCNCC4)CC3=O)cc21` [Example 16, 2-[(4R)-4-methyl-2-(1-methylpyrazolo[3,4-b]pyridin-4-yl)-3,4-dihydro-1H-isoquinolin-6-yl]-2,8-diazaspiro[4.5]decan-3-one], for which, at human TLR8, the IC50 is 4 nM. In addition, the “Clearance of Human microsome” value in data set [1] is given as 8.2 mL/min/kg.

For `CC1CN(c2ccc3c(c2)[C@@H](C)CN(c2ccnc4c2cnn4C)C3)CCN1` (stereo partly drawn) [Example 15, (4R)-4-methyl-6-(3-methylpiperazin-1-yl)-2-(1-methylpyrazolo[3,4-b]pyridin-4-yl)-3,4-dihydro-1H-isoquinoline], at human TLR8, the IC50 was determined as 3 nM. Also, the “Clearance of Human microsome” value in data set [1] is on record as 6.2 mL/min/kg.

In the case of `C[C@H]1CN(c2ccnc3c2cnn3C)Cc2ccc(N3C4CCC3CNC4)cc21` [Example 27, (4R)-6-(3,8-diazabicyclo[3.2.1]octan-8-yl)-4-methyl-2-(1-methylpyrazolo[3,4-b]pyridin-4-yl)-3,4-dihydro-1H-isoquinoline], the IC50 at human TLR8 came to 3 nM. The “Clearance of Human microsome” value in data set [1] turned out to be 6.2 mL/min/kg.

Consider `Cc1cc(N2Cc3ccc(OC[C@@H]4CNCCN4)cc3[C@@H](C)C2)c2cnn(C)c2n1` [Example 31, (4R)-2-(1,6-dimethylpyrazolo[3,4-b]pyridin-4-yl)-4-methyl-6-[[(2S)-piperazin-2-yl]methoxy]-3,4-dihydro-1H-isoquinoline], for which the IC50 at human TLR8 came out at 2 nM. The “Clearance of Human microsome” value in data set [1] was 7.9 mL/min/kg.

For `C[C@H]1CN(c2ccnc3c2cnn3C)Cc2ccc(N3CCN(C(=O)C4CCNCC4)CC3)cc21` [Example 7, 4-piperidyl-[4-[(4R)-4-methyl-2-(1-methylpyrazolo[3,4-b]pyridin-4-yl)-3,4-dihydro-1H-isoquinolin-6-yl]piperazin-1-yl]methanone], on human TLR8, the IC50 amounted to 17 nM. For the same molecule, in data set [1], the “Clearance of Human microsome” value stood at 10.3 mL/min/kg.
